According to PubChem BioAssay (NCI):
“And” between values parts separate entries of the source, which are not always exact repeats. Identical values can stand only once.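 Growth conditions: 96-well plates. Treatment: test compound, 48 hours, 5 concentrations. Analysis: linear interpolation between bracketing concentrations; unreached endpoints set to highest concentration. At the GI50, growth is halved. TGI: total growth inhibition.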

Tests used:
Assay in all cases: DTP human tumour cell line panel, 48 h
[1] = tested on: SK-MEL-2 melanoma
[2] = tested on: SF-268 CNS
[3] = tested on: MOLT-4 leukemia
[4] = tested on: U251 CNS
[5] = tested on: SF-539 CNS
[6] = tested on: COLO 205 colon
[7] = tested on: NCI-H522 lung
[8] = tested on: MCF7 breast
[9] = tested on: SK-MEL-28 melanoma
[10] = tested on: MDA-MB-435

Row | SMILES | GI50 [1] | TGI [1] | GI50 [2] | TGI [2] | GI50 [3] | TGI [3] | GI50 [4] | TGI [4] | GI50 [5] | TGI [5] | GI50 [6] | TGI [6] | GI50 [7] | TGI [7] | GI50 [8] [µM] | TGI [8] | GI50 [9] | TGI [9] | GI50 [10] | TGI [10]
1 | O=C(Nc1cnc(C(F)(F)F)cn1)c1cc(Cl)ccc1O | 0.271 µM | 0.84 µM | 0.296 µM | 94.1 µM | 0.352 µM | 1.78 µM | 0.352 µM | > 100 µM | 0.294 µM | 7.91 µM | 1.54 µM | 3.14 µM | 0.178 µM | 0.768 µM | 0.29 | > 100 µM | 0.257 µM | 2.2 µM | 0.318 µM | 3.23 µM
2 | CCSc1nc(N)c(C#N)c(-c2ccco2)c1C#N | > 100 µM | > 100 µM | 32.1 µM | > 100 µM | 51.9 µM | > 100 µM | 22.7 µM | 83.7 µM | 23.3 µM | 69.3 µM | 30.2 µM | > 100 µM | 91.5 µM | > 100 µM | 15 | > 100 µM | > 100 µM | > 100 µM | 25.2 µM | 66.1 µM
3 | O=S(=O)(NC1=NCCN1C(=S)SN1CCn2c1nsc2=S)c1cccc(OC(F)(F)F)c1 | 16 µM | 41.5 µM | 11.2 µM | 34.4 µM | 2.71 µM | 10.8 µM | 17.2 µM | 30.9 µM | 19.8 µM | 37.7 µM | 13.3 µM | > 100 µM | 6.85 µM | 28.3 µM | 4.17 | 17.2 µM | 15.9 µM | 32.6 µM | 5.86 µM | 22.1 µM
4 | CCN(CC)CCCC(C)Nc1c(-c2ccccc2)cnc2cc(Cl)ccc12 (stereo unspecified) | 6.56 µM | 13.8 µM | 10.3 µM | 27.3 µM | 4.38 µM | 31.9 µM | 6.84 µM | 20.5 µM | 4.36 µM | 16.3 µM | 1.6 µM | 3.23 µM | 7.22 µM | 19.2 µM | 4.54 | 17.7 µM | 1.82 µM | 3.55 µM | 2.24 µM | 5.31 µM
5 | Nc1n[nH]c(N)c1N=Nc1ccc(O)cc1 | 14.4 µM | 57 µM | 20.5 µM | 82.6 µM | 13.5 µM | 91 µM | 21.2 µM | 86.2 µM | 13.1 µM | 36.4 µM | 18.9 µM | 54.2 µM | 24.3 µM | > 100 µM | 23.5 | 90.8 µM | 22.1 µM | 63.8 µM | 17.1 µM | 59.4 µM
6 | Cc1cccc2c(Nc3ccc(NS(C)(=O)=O)cc3)c3ccc([N+](=O)[O-])cc3nc12 | 2.55 µM | 5.49 µM | 0.355 µM | 4.38 µM | 0.3 µM | 6.09 µM | 0.419 µM | 6.36 µM | 1.07 µM | 11.4 µM | 1.03 µM | 3.79 µM | 1.11 µM | 2.52 µM | 0.0382 | 3.58 µM | 1.51 µM | 4.38 µM | 1.85 µM | 7.27 µM
7 | N#CC(C#N)=C(N)/C(C#N)=C/c1ccc2[nH]ccc2c1 |  | > 100 µM |  | > 100 µM |  | > 100 µM |  | > 100 µM |  | > 100 µM |  | > 100 µM |  | > 100 µM |  | > 100 µM |  | > 100 µM |  | > 100 µM
8 | [N-]=[N+]=NC[C@H]1OCO[C@H](CN=[N+]=[N-])[C@H]2OCCOCCOc3ccccc3OCCOCCO[C@@H]21 |  | > 100 µM |  | > 100 µM |  | > 100 µM |  | > 100 µM |  | > 100 µM |  | > 100 µM |  | > 100 µM |  | > 100 µM |  | > 100 µM |  | > 100 µM
9 | CC1=C(Cl)C[C@@H](/C(C)=C\Cl)O[C@@]1(O)C(Br)Br |  | 73.8 µM |  | > 100 µM |  | > 100 µM |  | > 100 µM |  | > 100 µM |  | 88.5 µM |  | 49.3 µM |  | 49.3 µM |  | > 100 µM |  | > 100 µM
10 | Cc1ccc(N=C2SC(c3ccc(C)cc3)(c3ccc(C)cc3)c3ccccc32)cc1 |  | > 100 µM |  | > 100 µM |  | > 100 µM |  | > 100 µM |  | > 100 µM |  | > 100 µM |  | > 100 µM |  | > 100 µM |  | > 100 µM |  | > 100 µM
11 | COc1ccc2c(c1)/C(=C\c1c[nH]c3ccc(OC)cc13)C(=O)N2 | 2.3 µM | 6.27 µM | 3.61 µM | 15.3 µM | 2.95 µM | 8.14 µM |  |  | 3.95 µM | 15.6 µM | 2.89 µM | 9.84 µM | 2.27 µM | 7.76 µM | 2.65 | 13.1 µM | 4.56 µM | 16.7 µM | 0.877 µM | 5.17 µM
12 | CCOC(=O)C1=C(C)N2C(=NC3=C(CCC/C3=C\c3ccc(Cl)cc3)C2c2ccc(Cl)cc2)S1 (stereo unspecified) | 19 µM | 62.1 µM | 3.24 µM | 30.4 µM | 3.06 µM | 9.27 µM | 1.86 µM | 4.06 µM | 3.88 µM | > 100 µM | 2.44 µM | 4.65 µM | 3.84 µM | 17.8 µM | 2.44 | 11 µM | 3.07 µM | 11.4 µM | 2.93 µM | 14.2 µM
13 | C=CCn1c(=O)c2cnc(Nc3ccc(N4CCN(C)CC4)cc3)nc2n1-c1cccc(C(C)(C)O)n1 | 0.118 µM and 0.266 µM | 0.956 µM and 2.99 µM | 1.49 µM and 1.69 µM | 51.9 µM and > 10 µM | 0.348 µM and 0.333 µM | 18.1 µM and 4.26 µM | 0.707 µM and 1.18 µM | 19.9 µM and > 10 µM | 0.161 µM and 0.287 µM | 2.3 µM and 1.15 µM | 0.311 µM and 0.623 µM | 2.41 µM and > 6.7 µM | 0.176 µM and 0.293 µM | 0.645 µM and 2.08 µM | 0.323 | 21.4 µM and > 10 µM | 4.61 µM and 4.37 µM | 20.6 µM and > 10 µM | 0.201 µM and 0.247 µM | 0.561 µM and 0.666 µM
14 | C[C@H]1c2ccccc2CN1CCCOc1cc2c(cc1OCC1CC1)C1(CCCC1)C(N)=N2 | 1.87 µM | 6.69 µM | 2.94 µM | 10.3 µM | 1.4 µM | 4.93 µM | 1.31 µM | 4.08 µM | 0.922 µM | 1.89 µM | 0.842 µM | 1.68 µM | 1.66 µM | 6.62 µM | 1.18 | 3.46 µM |  |  | 1.67 µM | 5.76 µM
